# Data from paper PMC3987113 (Toxicology and applied pharmacology, 2009).
# “Also recorded” adds a separate entry of the source.
# How the values were obtained:
# [1] = system: liver of immature, ovariectomized C57BL/6 mice; settings: ref Boverhof et al. 2005; Kopec et al. 2008; cited from earlier work
# [2] = 300 μg/kg PCB126; ref Kopec et al. 2008; cited from earlier work
# [3] = liver, PCB126; ref Kopec et al. 2008; cited from earlier work
# hepatic gene expression [4] = assay: QRT-PCR verification of hepatic gene expression; type: in vivo, C57BL/6 mice
# hepatic gene expression [5] = assay: Hepatic gene expression, Agilent 4 x 44K microarrays; type: in vivo, C57BL/6 mice; settings: hepatic mRNA, 30 μg/kg TCDD; maximum fold change, |fold change|≥1.5, P1(t)≥0.90
# hepatic gene expression [6] = settings: hepatic mRNA, cDNA microarray, 30 μg/kg TCDD; maximum fold change, |fold change|≥1.5, P1(t)≥0.90; ref Boverhof et al. 2005; cited from earlier work
# [7] = system: liver of immature, ovariectomized C57BL/6 mice; assay: Liver histopathology; type: in vivo; settings: 300 mg/kg PCB153 or 30 μg/kg TCDD
# [8] = Hepatic tissue level quantification by HRGC/HRMS; type: in vivo, C57BL/6 mice; settings: liver, 168 h vs 24 h; single gavage 300 mg/kg PCB153 or 30 μg/kg TCDD
# [9] = Body and liver weights, time course study; type: in vivo, C57BL/6 mice; settings: 300 mg/kg PCB153 or 30 μg/kg TCDD, mean ± SD, n=5; for Body weight gain: terminal body weight divided by body weight prior to dosing
smiles,measurement,setting,value
"Clc1ccc(-c2cc(Cl)c(Cl)c(Cl)c2)cc1Cl [PCB126, 3,3′,4,4′,5-pentachlorobiphenyl]",Hepatocyte cell size and number,[1],not affected
same,Effect on relative liver weight (RLW),[2],also increased RLW at later time points
same,Hepatic level over time,[3],"continued to increase throughout the study, reaching the highest concentration at 7 days"
"Clc1cc2c(cc1Cl)Oc1cc(Cl)c(Cl)cc1O2 [TCDD, 2,3,7,8-tetrachlorodibenzo-p-dioxin, reference compound]",Regulation of PCB153-responsive (CAR/PXR) genes by TCDD,"hepatic gene expression [4]; 30 μg/kg TCDD, Table 3 and Fig. 5C",reciprocally modest; also recorded: minimal differential expression
same,Cyp1a2 induction,"hepatic gene expression [4]; hepatic mRNA, time course, 30 μg/kg TCDD (Fig. 6A) or 300 mg/kg PCB153 (Fig. 6B)",~ 30 fold
same,Elovl5 fold change,"hepatic gene expression [4]; hepatic mRNA, time course, 300 mg/kg PCB153 or 30 μg/kg TCDD (Fig. 6A-B)",2.2 fold
same,"TCDD fold change, Abcc3",hepatic gene expression [5],1.7 fold
same,"TCDD fold change, Acsl3",hepatic gene expression [5],−2.3 fold
same,"TCDD fold change, Agpat4",hepatic gene expression [5],no change
same,"TCDD fold change, Akr1b7",hepatic gene expression [5],no change
same,"TCDD fold change, Akr1c20",hepatic gene expression [5],−1.7 fold
same,"TCDD fold change, Aox1",hepatic gene expression [5],2.2 fold
same,"TCDD fold change, Cdca2",hepatic gene expression [5],no change
same,"TCDD fold change, Cds2",hepatic gene expression [5],no change
same,"TCDD fold change, Ces2",hepatic gene expression [5],2.5 fold
same,"TCDD fold change, Cyp2b9",hepatic gene expression [5],no change
same,"TCDD fold change, Cyp2b10",hepatic gene expression [5],2.3 fold
same,"TCDD fold change, Cyp2b23",hepatic gene expression [5],no change
same,"TCDD fold change, Cyp2c54",hepatic gene expression [5],no change
same,"TCDD fold change, Cyp2c55",hepatic gene expression [5],1.8 fold
same,"TCDD fold change, Cyp3a25",hepatic gene expression [5],no change
same,"TCDD fold change, Dhfr",hepatic gene expression [5],no change
same,"TCDD fold change, Elovl6",hepatic gene expression [5],−4.3 fold
same,"TCDD fold change, Fasn",hepatic gene expression [5],−4.3 fold
same,"TCDD fold change, Fmo5",hepatic gene expression [5],no change
same,"TCDD fold change, Gadd45a",hepatic gene expression [5],−3.6 fold
same,"TCDD fold change, Gadd45b",hepatic gene expression [5],3.2 fold
same,"TCDD fold change, Gpx2",hepatic gene expression [5],no change
same,"TCDD fold change, Gsta2",hepatic gene expression [5],5.9 fold
same,"TCDD fold change, Gstm4",hepatic gene expression [5],2.4 fold
same,"TCDD fold change, Gstt3",hepatic gene expression [5],1.5 fold
same,"TCDD fold change, Hmgcr",hepatic gene expression [5],−2.6 fold
same,"TCDD fold change, Hsd17b2",hepatic gene expression [5],2.2 fold
same,"TCDD fold change, Insig2",hepatic gene expression [5],−1.7 fold
same,"TCDD fold change, Mad1l1",hepatic gene expression [5],no change
same,"TCDD fold change, Myc",hepatic gene expression [5],3.0 fold
same,"TCDD fold change, Nol3",hepatic gene expression [5],no change
same,"TCDD fold change, Pla2g12a",hepatic gene expression [5],3.1 fold
same,"TCDD fold change, Slc1a4",hepatic gene expression [5],no change
same,"TCDD fold change, Slc23a1",hepatic gene expression [5],−1.7 fold
same,"TCDD fold change, Smpd3",hepatic gene expression [5],−2.6 fold
same,"TCDD fold change, Srebf1",hepatic gene expression [5],−2.3 fold
same,"TCDD fold change, Srebf2",hepatic gene expression [5],−1.7 fold
same,"TCDD fold change, Ugdh",hepatic gene expression [5],2.7 fold
same,"TCDD fold change, Zwint",hepatic gene expression [5],no change
same,Hepatocyte cell size and number,[1],not affected
same,"TCDD time course Boverhof et al., Abcc3 fold change",hepatic gene expression [6],1.5 fold
same,"TCDD time course Boverhof et al., Agpat4 fold change",hepatic gene expression [6],no change
same,"TCDD time course Boverhof et al., Akr1b7 fold change",hepatic gene expression [6],no change
same,"TCDD time course Boverhof et al., Cds2 fold change",hepatic gene expression [6],no change
same,"TCDD time course Boverhof et al., Ces2 fold change",hepatic gene expression [6],1.6 fold
same,"TCDD time course Boverhof et al., Cyp2b10 fold change",hepatic gene expression [6],no change
same,"TCDD time course Boverhof et al., Dhfr fold change",hepatic gene expression [6],−1.5 fold
same,"TCDD time course Boverhof et al., Elovl6 fold change",hepatic gene expression [6],−1.8 fold
same,"TCDD time course Boverhof et al., Fasn fold change",hepatic gene expression [6],−1.9 fold
same,"TCDD time course Boverhof et al., Fmo5 fold change",hepatic gene expression [6],no change
same,"TCDD time course Boverhof et al., Gadd45b fold change",hepatic gene expression [6],4.6 fold
same,"TCDD time course Boverhof et al., Gpx2 fold change",hepatic gene expression [6],no change
same,"TCDD time course Boverhof et al., Gsta2 fold change",hepatic gene expression [6],7.2 fold
same,"TCDD time course Boverhof et al., Gstt3 fold change",hepatic gene expression [6],no change
same,"TCDD time course Boverhof et al., Insig2 fold change",hepatic gene expression [6],no change
same,"TCDD time course Boverhof et al., Myc fold change",hepatic gene expression [6],3.7 fold
same,"TCDD time course Boverhof et al., Nol3 fold change",hepatic gene expression [6],no change
same,"TCDD time course Boverhof et al., Slc1a4 fold change",hepatic gene expression [6],no change
same,"TCDD time course Boverhof et al., Srebf1 fold change",hepatic gene expression [6],−2.1 fold
same,"TCDD time course Boverhof et al., Srebf2 fold change",hepatic gene expression [6],1.5 fold
same,"TCDD time course Boverhof et al., Ugdh fold change",hepatic gene expression [6],3.1 fold
same,"Hepatic lipid accumulation, Oil Red O staining",[7],significant lipid accumulation
same,Necrosis and immune (mixed) cell infiltration in liver,[7],"more dramatic vacuolization, and necrosis, as well as mixed cell infiltration"
same,Hepatic inflammation,[7]; time course,moderate multifocal inflammation; also recorded: instances of multifocal inflammation
same,"Hepatocellular vacuolization, time course study",[7]; Fig. 2 at 168 h,more severe; also recorded: slight to moderate vacuolization
same,Decrease of hepatic level after 7 days,[8],~ 1.4 fold
same,Liver weight,[9]; 4 h,0.733 ± 0.044 g
same,Relative liver weight,[9]; 4 h,0.054 ± 0.003
same,Body weight gain,[9]; 4 h,1.0 ± 0.0
same,Terminal body weight,[9]; 4 h after single gavage,13.6 ± 0.8 g
same,Liver weight,[9]; 12 h,0.724 ± 0.025 g
same,Relative liver weight,[9]; 12 h,0.056 ± 0.001
same,Body weight gain,[9]; 12 h,1.1 ± 0.0
same,Terminal body weight,[9]; 12 h after single gavage,12.8 ± 0.7 g
same,Liver weight,[9]; 24 h,0.973 ± 0.088 g
same,Relative liver weight,[9]; 24 h,0.068 ± 0.003
same,Body weight gain,[9]; 24 h,1.1 ± 0.0
same,Terminal body weight,[9]; 24 h after single gavage,14.2 ± 0.9 g
same,Liver weight,[9]; 72 h,1.068 ± 0.060 g
same,Relative liver weight,[9]; 72 h,0.071 ± 0.003
same,Body weight gain,[9]; 72 h,1.2 ± 0.1
same,Terminal body weight,[9]; 72 h after single gavage,15.1 ± 0.7 g
same,Liver weight,[9]; 168 h,1.263 ± 0.080 g
same,Relative liver weight,[9]; 168 h,0.072 ± 0.003
same,Body weight gain,[9]; 168 h,1.3 ± 0.0
same,Terminal body weight,[9]; 168 h after single gavage,17.5 ± 0.4 g
